Like-named read-outs stand apart in the source and are kept apart here.
What was measured:
Assay type in all cases: cell-based
human TLR9 = target: T1, human TLR9 (Homo sapiens, UniProt Q9NR96); assay: TLR9 inhibition reporter assay (HEK-Blue cells, secreted embryonic alkaline phosphatase reporter)
T1 construct: host or cells: HEK-Blue cells (HEK293-derived reporter line)
T1 sequence (Q9NR96 26-1032): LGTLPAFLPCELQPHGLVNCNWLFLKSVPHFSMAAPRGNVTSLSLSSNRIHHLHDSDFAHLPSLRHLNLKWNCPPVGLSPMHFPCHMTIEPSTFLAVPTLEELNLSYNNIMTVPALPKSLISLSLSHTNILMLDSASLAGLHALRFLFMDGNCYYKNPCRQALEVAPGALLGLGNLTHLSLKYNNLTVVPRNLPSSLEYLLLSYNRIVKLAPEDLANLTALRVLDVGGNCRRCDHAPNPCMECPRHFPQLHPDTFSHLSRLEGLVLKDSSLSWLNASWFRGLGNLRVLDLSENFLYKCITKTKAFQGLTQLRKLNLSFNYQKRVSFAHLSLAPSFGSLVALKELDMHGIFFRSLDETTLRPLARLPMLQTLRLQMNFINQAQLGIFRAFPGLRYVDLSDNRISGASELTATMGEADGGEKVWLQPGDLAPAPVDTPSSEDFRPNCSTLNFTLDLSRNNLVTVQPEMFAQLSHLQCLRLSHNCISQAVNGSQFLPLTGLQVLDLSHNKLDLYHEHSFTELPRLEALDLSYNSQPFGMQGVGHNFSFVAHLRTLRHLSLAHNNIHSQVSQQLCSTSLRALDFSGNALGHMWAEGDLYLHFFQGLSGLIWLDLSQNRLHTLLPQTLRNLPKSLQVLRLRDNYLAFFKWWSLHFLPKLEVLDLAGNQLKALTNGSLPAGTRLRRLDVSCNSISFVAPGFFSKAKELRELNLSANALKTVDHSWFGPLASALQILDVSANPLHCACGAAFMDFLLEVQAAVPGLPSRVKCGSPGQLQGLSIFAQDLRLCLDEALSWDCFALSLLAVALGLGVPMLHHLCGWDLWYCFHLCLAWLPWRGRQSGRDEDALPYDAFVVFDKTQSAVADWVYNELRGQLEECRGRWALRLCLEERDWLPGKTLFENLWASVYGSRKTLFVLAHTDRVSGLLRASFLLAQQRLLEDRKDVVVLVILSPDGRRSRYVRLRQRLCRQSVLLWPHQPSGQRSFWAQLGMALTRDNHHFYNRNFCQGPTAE
Method in brief: (§1)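 Steps: seed receptor-specific HEK-Blue cells; add compound, 0.05 nM–50 μM; wait 30 min at room temperature; add final gardiquimod 7.5 μM, R848 15.9 μM or ODN2006 5 nM for TLR7, TLR8 or TLR9; incubate 22 h at 37 °C; detect NF-κB/AP-1-driven SEAP.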

human TLR7 = target: T2, human TLR7 (Homo sapiens, UniProt Q9NYK1); assay: TLR7 inhibition reporter assay (HEK-Blue cells, secreted embryonic alkaline phosphatase reporter); settings: HEK-Blue cells overexpressing human TLR7, stimulated with gardiquimod 7.5 μM; read-out: TLR 7 IC50
T2 construct: host or cells: HEK-Blue cells (HEK293-derived reporter line)
T2 sequence (Q9NYK1 27-1049): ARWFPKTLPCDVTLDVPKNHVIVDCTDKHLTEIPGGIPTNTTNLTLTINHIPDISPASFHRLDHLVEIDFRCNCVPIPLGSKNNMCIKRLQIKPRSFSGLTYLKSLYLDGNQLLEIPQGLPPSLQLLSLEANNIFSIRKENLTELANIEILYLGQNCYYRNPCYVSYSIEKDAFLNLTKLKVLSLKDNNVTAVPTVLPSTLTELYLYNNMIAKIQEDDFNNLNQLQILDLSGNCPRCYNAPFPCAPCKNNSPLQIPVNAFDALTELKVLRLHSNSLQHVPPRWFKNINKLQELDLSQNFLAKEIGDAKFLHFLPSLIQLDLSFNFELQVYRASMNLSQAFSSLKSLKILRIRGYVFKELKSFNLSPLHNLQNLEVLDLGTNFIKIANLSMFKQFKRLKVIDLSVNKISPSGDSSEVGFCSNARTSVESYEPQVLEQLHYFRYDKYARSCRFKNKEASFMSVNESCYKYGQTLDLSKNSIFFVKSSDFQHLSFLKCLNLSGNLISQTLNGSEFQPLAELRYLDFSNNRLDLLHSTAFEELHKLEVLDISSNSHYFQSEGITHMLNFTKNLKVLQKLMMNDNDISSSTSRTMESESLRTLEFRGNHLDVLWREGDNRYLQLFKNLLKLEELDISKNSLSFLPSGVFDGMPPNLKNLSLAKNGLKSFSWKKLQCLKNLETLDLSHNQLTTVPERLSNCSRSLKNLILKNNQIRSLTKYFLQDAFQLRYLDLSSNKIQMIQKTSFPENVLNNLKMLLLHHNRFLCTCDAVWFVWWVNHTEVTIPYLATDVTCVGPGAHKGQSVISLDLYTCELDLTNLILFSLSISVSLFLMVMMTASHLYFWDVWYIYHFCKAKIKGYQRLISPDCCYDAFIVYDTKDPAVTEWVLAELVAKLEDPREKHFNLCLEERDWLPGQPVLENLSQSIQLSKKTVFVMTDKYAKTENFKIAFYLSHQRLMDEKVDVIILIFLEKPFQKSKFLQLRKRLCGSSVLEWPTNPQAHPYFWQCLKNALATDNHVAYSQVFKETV
Method in brief: as §1

human TLR8 = target: T3, human TLR8 (Homo sapiens, UniProt Q9NR97); assay: TLR8 inhibition reporter assay (HEK-Blue cells, secreted embryonic alkaline phosphatase reporter); settings: HEK-Blue cells overexpressing human TLR8, stimulated with R848 15.9 μM; read-out: TLR 8 IC50
T3 construct: host or cells: HEK-Blue cells (HEK293-derived reporter line)
T3 sequence (Q9NR97 27-1041): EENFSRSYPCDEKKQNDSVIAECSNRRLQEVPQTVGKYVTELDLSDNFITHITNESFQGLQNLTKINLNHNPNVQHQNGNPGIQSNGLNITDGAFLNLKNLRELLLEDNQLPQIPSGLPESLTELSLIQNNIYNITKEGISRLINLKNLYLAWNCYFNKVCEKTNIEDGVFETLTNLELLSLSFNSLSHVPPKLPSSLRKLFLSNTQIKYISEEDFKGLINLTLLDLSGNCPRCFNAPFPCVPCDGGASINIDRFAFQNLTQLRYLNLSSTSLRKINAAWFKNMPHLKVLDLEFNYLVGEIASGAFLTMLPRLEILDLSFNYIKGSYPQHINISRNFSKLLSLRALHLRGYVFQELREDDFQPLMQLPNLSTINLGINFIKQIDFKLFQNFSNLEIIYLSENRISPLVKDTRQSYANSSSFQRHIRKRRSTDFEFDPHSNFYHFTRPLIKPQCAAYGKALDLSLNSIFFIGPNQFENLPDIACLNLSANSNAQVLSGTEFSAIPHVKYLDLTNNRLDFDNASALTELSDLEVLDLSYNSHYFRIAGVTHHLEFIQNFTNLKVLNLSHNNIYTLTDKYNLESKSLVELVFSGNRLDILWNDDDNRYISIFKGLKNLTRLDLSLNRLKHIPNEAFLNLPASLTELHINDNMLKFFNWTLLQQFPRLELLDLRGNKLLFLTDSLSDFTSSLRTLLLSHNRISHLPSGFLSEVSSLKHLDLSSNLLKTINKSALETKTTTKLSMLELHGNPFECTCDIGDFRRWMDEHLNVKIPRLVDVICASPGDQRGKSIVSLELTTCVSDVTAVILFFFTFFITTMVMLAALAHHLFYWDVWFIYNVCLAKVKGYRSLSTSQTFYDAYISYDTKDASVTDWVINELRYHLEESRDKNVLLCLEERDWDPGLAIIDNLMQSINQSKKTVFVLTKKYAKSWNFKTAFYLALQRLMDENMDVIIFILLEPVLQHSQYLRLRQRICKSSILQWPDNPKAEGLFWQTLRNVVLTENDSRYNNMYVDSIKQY
Method in brief: as §1

[1] = HEK-Blue cells overexpressing human TLR9, stimulated with ODN2006 5 nM, read-out: TLR 9 IC50

| IC50 (human TLR9) [nM] | IC50 (human TLR9; [1]) [nM] | IC50 (human TLR7) [nM] | IC50 (human TLR8) [nM] | Compound |
| --- | --- | --- | --- | --- |
| 99 | 99 | > 50000 | > 50000 | Cn1c(-c2ccc(S(C)(=O)=O)cc2)nc2cc(F)c(C3CCN(C4CC5CCC(C4)N5C4CCOCC4)CC3)cc21 (stereo not drawn) [Example 236, 5-fluoro-1-methyl-2-(4-(methylsulfonyl)phenyl)-6-(1-(8-(tetrahydro-2H-pyran-4-yl)-8-azabicyclo[3.2.1]octan-3-yl)piperidin-4-yl)-1H-benzo[d]imidazole] |
| 87 | 87 | > 50000 | > 50000 | Cn1c(-c2ccc(S(C)(=O)=O)cc2)nc2cc(F)c(C3CCN(C4CC5CCC(C4)N5C4CCOCC4)CC3)cc21 (stereo not drawn) [Example 237, 5-fluoro-1-methyl-2-(4-(methylsulfonyl)phenyl)-6-(1-(8-(tetrahydro-2H-pyran-4-yl)-8-azabicyclo[3.2.1]octan-3-yl)piperidin-4-yl)-1H-benzo[d]imidazole] |
| 120 | 121 | 6600 | > 50000 | CC(C)CN1CCC(N2CCC(c3cc4nc(-c5ccc(S(C)(=O)=O)cc5)n(C)c4cc3F)CC2)CC1 [Example 240, 6-fluoro-5-(1′-isobutyl-[1,4′-bipiperidin]-4-yl)-1-methyl-2-(4-(methylsulfonyl)phenyl)-1H-benzo[d]imidazole] |
| 1700 | 1710 | > 50000 | > 50000 | Cn1c(-c2ccc(S(C)(=O)=O)cc2)nc2cc(C3CCN(C4CCN(C5CC5)CC4)CC3)c(F)cc21 [Example 241, 5-(1′-cyclopropyl-[1,4′-bipiperidin]-4-yl)-6-fluoro-1-methyl-2-(4-(methylsulfonyl)phenyl)-1H-benzo[d]imidazole] |
| 160 | 158 | 14200 | > 50000 | Cn1c(-c2ccc(S(C)(=O)=O)cc2)nc2cc(C3CCN(C4CCN(CC5CC5)CC4)CC3)c(F)cc21 [Example 242, 5-(1′-(cyclopropylmethyl)-[1,4′-bipiperidin]-4-yl)-6-fluoro-1-methyl-2-(4-(methylsulfonyl)phenyl)-1H-benzo[d]imidazole] |
| 940 | 943 | > 50000 | > 50000 | Cn1c(-c2ccc(S(C)(=O)=O)cc2)nc2cc(C3CCN(C4CCN(C5CCC5)CC4)CC3)c(F)cc21 [Example 243, 5-(1′-cyclobutyl-[1,4′-bipiperidin]-4-yl)-6-fluoro-1-methyl-2-(4-(methylsulfonyl)phenyl)-1H-benzo[d]imidazole] |
| 3600 | 3570 | > 50000 | > 50000 | Cn1c(-c2ccc(S(C)(=O)=O)cc2)nc2cc(C3CCN(C4CCN(C5COC5)CC4)CC3)c(F)cc21 [Example 244, 6-fluoro-1-methyl-2-(4-(methylsulfonyl)phenyl)-5-(1′-(oxetan-3-yl)-[1,4′-bipiperidin]-4-yl)-1H-benzo[d]imidazole] |
| 1100 | 1060 | > 50000 | > 50000 | Cn1c(-c2ccc(S(C)(=O)=O)cc2)nc2cc(C3CCN(C4CCN(C5CCOCC5)CC4)CC3)c(F)cc21 [Example 245, 6-fluoro-1-methyl-2-(4-(methylsulfonyl)phenyl)-5-(1′-(tetrahydro-2H-pyran-4-yl)-[1,4′-bipiperidin]-4-yl)-1H-benzo[d]imidazole] |
| 400 | 398 | 26200 | > 50000 | COCCN1CCC(N2CCC(c3cc4nc(-c5ccc(S(C)(=O)=O)cc5)n(C)c4cc3F)CC2)CC1 [Example 246, 6-fluoro-5-(1′-(2-methoxyethyl)-[1,4′-bipiperidin]-4-yl)-1-methyl-2-(4-(methylsulfonyl)phenyl)-1H-benzo[d]imidazole] |
| 30 | 30 | 21100 | > 50000 | CC(C)CN1C2CCC1CC(N1CCC(c3cc4nc(-c5ccc(S(C)(=O)=O)cc5)n(C)c4cc3F)CC1)C2 (stereo not drawn) [Example 247, 6-fluoro-5-(1-(8-isobutyl-8-azabicyclo[3.2.1]octan-3-yl)piperidin-4-yl)-1-methyl-2-(4-(methylsulfonyl)phenyl)-1H-benzo[d]imidazole] |
| 78 | 78 | > 50000 | > 50000 | CC(C)CN1C2CCC1CC(N1CCC(c3cc4nc(-c5ccc(S(C)(=O)=O)cc5)n(C)c4cc3F)CC1)C2 (stereo not drawn) [Example 248, 6-fluoro-5-(1-(8-isobutyl-8-azabicyclo[3.2.1]octan-3-yl)piperidin-4-yl)-1-methyl-2-(4-(methylsulfonyl)phenyl)-1H-benzo[d]imidazole] |
| 71 | 71 | 19500 | > 50000 | Cn1c(-c2ccc(S(C)(=O)=O)cc2)nc2cc(C3CCN(C4CC5CCC(C4)N5C4CCC4)CC3)c(F)cc21 (stereo not drawn) [Example 251, 5-(1-(8-cyclobutyl-8-azabicyclo[3.2.1]octan-3-yl)piperidin-4-yl)-6-fluoro-1-methyl-2-(4-(methylsulfonyl)phenyl)-1H-benzo[d]imidazole] |

— US12492188B2, “1H-benzo[D]imidazole derivatives as TLR9 inhibitors for the treatment of fibrosis” (BRISTOL-MYERS SQUIBB COMPANY, priority 2020, dated 2025)
